Measured values as given in article PMC10223987 (Viruses, 2023).
Where a name gives a salt, the structure may show the parent alone. Read-outs that look alike come from different tables or passages of the source.

Columns and labels:
[1] = system: DSP1-7 and DSP8-11 co-expressing 293FT cells; assay: cells; type: cell-based; details: TMPRSS2-independent / DSP reassociation control; read-out: CoTF Assay IC50
[2] = system: ACE2/TMPRSS2-dependant SARS-CoV-2 S protein-mediated membrane fusion; assay: microbe, parasite or virus in culture; type: cell-based
[3] = system: SARS-CoV-2 pseudovirus; assay: microbe, parasite or virus in culture; type: cell-based; details: Severe acute respiratory syndrome-related coronavirus; for inhibition at 100 µM: VeroE6/TMPRSS2, read-out: SARS-CoV-2 Pseudovirus % Inhibition; for IC50: VeroE6/TMPRSS2, read-out: SARS-CoV-2 Pseudovirus IC50
[4] = system: VeroE6-TMPRSS2 cells; assay: Cell toxicity assay (Celltiter-Glo); type: cell-based; details: 24 h, read-out: Cell Viability Inhibition IC50
[5] = biological target: thrombin (Homo sapiens, UniProt P00734); assay: Thrombin enzyme inhibition assay; type: biochemical
[6] = biological target: TMPRSS2 (Homo sapiens, UniProt O15393); assay: TMPRSS2 enzyme inhibition assay (fluorescence-quenched peptide substrate); type: biochemical; details: enzymatic assay
Sequence of TMPRSS2 (O15393 whole entry): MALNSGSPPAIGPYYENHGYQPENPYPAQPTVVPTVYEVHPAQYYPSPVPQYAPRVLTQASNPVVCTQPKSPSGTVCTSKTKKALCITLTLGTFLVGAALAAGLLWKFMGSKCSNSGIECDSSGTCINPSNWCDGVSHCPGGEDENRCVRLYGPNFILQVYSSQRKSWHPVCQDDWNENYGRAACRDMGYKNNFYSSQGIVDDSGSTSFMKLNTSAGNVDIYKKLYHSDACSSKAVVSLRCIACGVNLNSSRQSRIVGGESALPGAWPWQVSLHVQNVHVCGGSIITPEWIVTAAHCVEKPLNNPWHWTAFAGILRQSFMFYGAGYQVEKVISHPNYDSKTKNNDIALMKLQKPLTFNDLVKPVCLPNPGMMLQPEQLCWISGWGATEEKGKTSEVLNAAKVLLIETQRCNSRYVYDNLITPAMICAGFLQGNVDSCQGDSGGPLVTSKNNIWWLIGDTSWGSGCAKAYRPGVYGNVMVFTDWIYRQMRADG

[7] = biological target: factor Xa (Homo sapiens, UniProt P00742); assay: Factor Xa enzyme inhibition assay; type: biochemical
Sequence of factor Xa (P00742 235-488 limits assumed): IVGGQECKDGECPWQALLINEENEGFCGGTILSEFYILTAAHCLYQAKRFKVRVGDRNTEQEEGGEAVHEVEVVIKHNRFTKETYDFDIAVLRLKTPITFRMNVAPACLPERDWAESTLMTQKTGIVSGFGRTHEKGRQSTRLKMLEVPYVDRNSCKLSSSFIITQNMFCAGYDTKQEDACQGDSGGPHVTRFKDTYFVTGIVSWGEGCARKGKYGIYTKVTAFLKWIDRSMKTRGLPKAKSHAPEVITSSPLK
Sequence of factor Xa (P00742 41-179 partner limits assumed): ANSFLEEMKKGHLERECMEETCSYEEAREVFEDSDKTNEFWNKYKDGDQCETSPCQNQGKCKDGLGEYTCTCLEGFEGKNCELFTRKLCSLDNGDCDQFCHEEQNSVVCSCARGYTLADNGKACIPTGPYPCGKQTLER

[8] = cited from earlier work
[9] = Severe acute respiratory syndrome coronavirus 2, read-out: S2TA Assay IC50

**Q.** With N=C(N)c1ccc2nc(-c3cccc(-c4nc5ccc(C(=N)N)cc5[nH]4)n3)[nH]c2c1 (as salt: HCl) [Compound 10] as the compound, how does the melting point read?
**A.** > 300 °C

**Q.** Which IC50 [1] does the source give for N=C(N)c1ccc(-c2ccc(-c3ccc(C(=N)N)cc3)o2)cc1 [Compound 7] here?
**A.** > 100 µM

**Q.** And the IC50 [2, 9]?
**A.** > 100 µM

**Q.** What about the inhibition at 100 µM [3] of the same compound?
**A.** 2.66%

**Q.** What about the IC50 [3] of the same compound?
**A.** > 100 µM

**Q.** What about the IC50 [4] of the same compound?
**A.** > 100 µM

**Q.** What about the IC50 [5] of the same compound?
**A.** 79.1 µM

**Q.** And the IC50 [6]?
**A.** 82.7 µM

**Q.** What about the IC50 [7] of the same compound?
**A.** 30.9 µM

**Q.** What about the “fold less potential factor Xa inhibitor relative to pentamidine” value ([7]; relative to pentamidine) of the same compound?
**A.** 5 fold

**Q.** Which results are given for N=C(N)c1ccc2nc(-c3cccc(-c4nc5ccc(C(=N)N)cc5[nH]4)n3)[nH]c2c1 [Compound 10]?
**A.** IC50 [1]: 37.8 µM; IC50 [5]: 0.921 µM; IC50 [7]: 5.93 µM

**Q.** What does the source list for CC(C)NC(=N)c1ccc2nc(-c3cccc(-c4nc5ccc(C(=N)NC(C)C)cc5[nH]4)n3)[nH]c2c1 [Compound 11]?
**A.** IC50 [1]: > 100 µM; IC50 [2, 9]: > 100 µM; inhibition at 100 µM [3]: 27%; IC50 [3]: > 100 µM; IC50 [4]: > 100 µM; IC50 [5]: > 1 µM; IC50 [6]: > 10 µM; IC50 [7]: > 1 µM

**Q.** For N=C(N)c1ccc2nc(-c3cccc(-c4nc5ccc(C(=N)N)cc5[nH]4)c3)[nH]c2c1 [Compound 12], which IC50 [1] is on record?
**A.** > 100 µM

**Q.** And the IC50 [2, 9]?
**A.** > 100 µM

**Q.** And the inhibition at 100 µM [3]?
**A.** 17.1%

**Q.** What about the IC50 [3] of the same compound?
**A.** > 100 µM

**Q.** What about the IC50 [4] of the same compound?
**A.** > 100 µM

**Q.** What about the IC50 [5] of the same compound?
**A.** 0.862 µM

**Q.** What about the IC50 [6] of the same compound?
**A.** 4.89 µM

**Q.** What about the IC50 [7] of the same compound?
**A.** 34.1 µM

**Q.** Which results are given for N=C(N)c1ccc2nc(-c3ccc(-c4cccc(-c5ccc(-c6nc7ccc(C(=N)N)cc7[nH]6)cc5)n4)cc3)[nH]c2c1 [Compound 13]?
**A.** IC50 [1]: 37 µM; IC50 [2, 9]: 13.7 µM; inhibition at 100 µM [3]: 20.5%; IC50 [3]: > 100 µM; IC50 [4]: > 100 µM; IC50 [5]: 0.929 µM; IC50 [6]: 72.4 µM; IC50 [7]: 4.89 µM

**Q.** For CC(C)NC(=N)c1ccc2nc(-c3ccc(-c4cccc(-c5ccc(-c6nc7ccc(C(=N)NC(C)C)cc7[nH]6)cc5)n4)cc3)[nH]c2c1 [Compound 14], which IC50 [1] is on record?
**A.** 31 µM

**Q.** And the IC50 [2, 9]?
**A.** 16.9 µM

**Q.** What about the IC50 ([2]; read-out: S2TA Assay IC50) of the same compound?
**A.** 10.9 µM

**Q.** And the inhibition at 100 µM [3]?
**A.** 77.4%

**Q.** What about the IC50 [3] of the same compound?
**A.** 83.7 µM

**Q.** What about the IC50 [4] of the same compound?
**A.** > 100 µM

**Q.** What about the IC50 [5] of the same compound?
**A.** 2.25 µM

**Q.** And the IC50 [6]?
**A.** > 100 µM

**Q.** And the IC50 [7]?
**A.** > 10 µM

**Q.** Which results are given for N=C(N)c1ccc2cc(OC(=O)c3ccc(N=C(N)N)cc3)ccc2c1 [Nafamostat, nafamostat, reference compound]?
**A.** IC50 [5]: 0.0341 µM; IC50 [7]: 1.74 µM; plasma half-life [8]: less than 1 min

**Q.** For N=C(N)c1ccc(OCCCCCOc2ccc(C(=N)N)cc2)cc1 [Pentamidine, pentamidine, reference compound], which IC50 [1] is on record?
**A.** > 100 µM

**Q.** What about the IC50 [2, 9] of the same compound?
**A.** 32.3 µM

**Q.** And the inhibition at 100 µM [3]?
**A.** 69.5%

**Q.** What about the IC50 [3] of the same compound?
**A.** 45 µM

**Q.** And the IC50 [4]?
**A.** > 100 µM

**Q.** What about the IC50 [5] of the same compound?
**A.** 1.51 µM

**Q.** What about the IC50 [6] of the same compound?
**A.** 3.98 µM

**Q.** And the IC50 [7]?
**A.** 6.22 µM

**Q.** With CN(C)C(=O)COC(=O)Cc1ccc(OC(=O)c2ccc(NC(=N)N)cc2)cc1 [camostat] as the compound, how does the plasma half-life [8] read?
**A.** 23.1 min
